These results are taken from patent publication US20250066329A1, “PIPERIDINYLPYRIDINYLCARBONITRILE DERIVATIVES AS INHIBITORS OF GLUTAMINYL-PEPTIDE CYCLOTRANSFERASE AND GLUTAMINYL-PEPTIDE CYCLOTRANSFERASE LIKE PROTEIN” (Boehringer Ingelheim International GmbH, priority 2023, published 2025).

For one data set, the target named is T1, QPCTL (Homo sapiens, UniProt Q9NXS2).
T1 construct: made in house
The data set is described as follows: Assay A: biochemical QPCTL activity assay (MALDI-TOF MS, CD47 peptide substrate). The settings on record: 0.5 nM enzyme, 10 μM CD47 peptide substrate; read-out: Inhibition of QPCTL: IC50. Here is the method:
(§1) QPCT or QPCTL dependent conversion of N-terminal glutamine to pyroglutamate of CD47 was monitored via MALDI-TOF MS. Test compounds were dissolved in 100% DMSO and serially diluted into clear 1,536-well microtiter plates. Enzymatic reactions were set up in assay buffer containing 20 mM Tris pH 7.5, 0.1 mM TCEP, 0.01% BSA, and 0.001% Tween20. […] The plates were incubated for 10 min in a humidified incubator at 24° C. Subsequently, 2.5 μL of CD47 peptide substrate surrogate (^19[…]^33) was added to each well (final concentration: 10 μM for QPCTL/20 μM for QPCT). The plates were mixed for 30 sec at 1,000 rpm and subsequently incubated for 40 min in a humidified incubator at 24° C. […] The plates were sealed with an adhesive foil, mixed for 30 s at 1,000 rpm and stored at room temperature until preparation of the MALDI target plates. […] QPCT or QPCTL activity was monitored by calculating the ratio between product and internal standard signals followed by normalization to high (100% activity) and low (0% activity) controls. Determination of compound potencies was obtained by fitting the dose-response data to a four-parameter logistical equation.

The next data set deals with T2, QPCT (Homo sapiens, UniProt Q16769).
T2 construct: purchased Origine (OriGene) TP700028
Description: Assay A: biochemical QPCT activity assay (MALDI-TOF MS, CD47 peptide substrate). To be noted: 0.5 nM enzyme, 20 μM CD47 peptide substrate; read-out: Inhibition of QPCT: IC50. As for the experimental part:
as §1

Data set [1] has as its system SIRPα signalling induced by Raji cells. The data set is described as follows: Assay B: SIRPα signalling assay using Raji cells. The format is cell-based. To be noted: Homo sapiens; Raji cells, 48 h compound incubation, PathHunter SIRPαV1 reporter cells; read-out: Inhibition of SIRPα signalling induced by Raji cells: IC50. Here is the method: (§2) Two cell types are independently used: the Raji cell line (lymphoblast-like human cell line derived from B lymphocytes from a Burkitt's lymphoma patient in 1963) and A549 cells (adenocarcinomic human alveolar basal epithelial cells).
(§3) Test compounds were dissolved in 100% DMSO and serially diluted into a white 384-well microtiter cell culture plate (PerkinElmer #60076780 in case of Raji assay; PDL-coated plates Greiner #781945 in case of A549 assay). 5000 Raji cells (ATCC #CC86) or 5000 A549 cells (ATCC #CCL-185) in Assay Complete Cell Plating reagent 30 (DiscoverX 93-0563R30B) were added per well. The assay plate was incubated for 48 h at 37° C., 95% humidity and 5% CO2. 15000 reporter cells (Jurkat PathHunter SIRPαV1, DiscoverX #93-1135C19) were added to each well, and the plate was incubated for 5 h at 37° C., 95% humidity and 5% CO2. Bioassay reagent 1 of the PathHunter Bioassay detection kit (DiscoverX 93-0001) was added to each well of the plate using a multichannel pipette followed by a 15 min incubation at room temperature. Afterwards bioassay reagent 2 was added followed by 60 min incubation at room temperature (incubation in the dark). The analysis of the data was performed using the luminescence signal generated by beta-galactosidase in the PathHunter reporter cell line. The luminescence measurement was done using a Pherastar Multi-Mode Reader. Dose-response curves & IC50 data were calculated with 4-parameter sigmoidal dose response formula.

Data set [2] deals with SIRPα signalling induced by A549 cells. The data set is described as follows: Assay B: SIRPα signalling assay using A549 cells. The format is cell-based. The settings on record: Homo sapiens; A549 cells, 48 h compound incubation, PathHunter SIRPαV1 reporter cells; read-out: Inhibition of SIRPα signalling induced by A549 cells: IC50. Here is the method:
as §2, §3

A short description of data set [3]: Assay C: permeability in CACO-2 cells. The settings on record: human, pH 7.2; for efflux ratio at 2 h: Caco-2, permeability B-A/permeability A-B; for Papp A→B at 2 h: Caco-2, apical to basolateral. The format is in vitro ADME. Here is the method:
Caco-2 cells (1-2×10^5 cells/1 cm^2 area) are seeded on filter inserts (Costar transwell polycarbonate or PET filters, 0.4 µm pore size) and cultured (DMEM) for 10 to 25 days. Compounds are dissolved in appropriate solvent (like DMSO, 1-20 mM stock solutions). […] The transport solution (TL) is applied to the apical or basolateral donor side for measuring A-B or B-A permeability (3 filter replicates), respectively. Samples are collected at the start and end of experiment from the donor and at various time intervals for up to 2 hours also from the receiver side for concentration measurement by HPLC-MS/MS or scintillation counting. Sampled receiver volumes are replaced with fresh receiver solution.
Efflux ratio (ER)=permeability B-A/permeability A-B
On the technique in general: Passage across Caco-2 layers is used to estimate intestinal permeability.

The structures appear in SMILES notation.

T1 sequence (Q9NXS2 whole entry): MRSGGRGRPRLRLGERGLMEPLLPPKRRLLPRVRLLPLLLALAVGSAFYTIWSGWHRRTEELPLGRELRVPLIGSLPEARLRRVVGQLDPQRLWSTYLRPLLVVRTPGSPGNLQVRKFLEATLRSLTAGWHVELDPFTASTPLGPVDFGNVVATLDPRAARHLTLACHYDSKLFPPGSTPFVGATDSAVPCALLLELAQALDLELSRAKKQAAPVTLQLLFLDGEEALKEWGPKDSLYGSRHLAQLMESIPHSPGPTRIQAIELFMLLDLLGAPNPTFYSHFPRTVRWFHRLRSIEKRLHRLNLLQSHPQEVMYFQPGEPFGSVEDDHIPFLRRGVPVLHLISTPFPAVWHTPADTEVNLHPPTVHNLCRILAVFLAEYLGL
T2 sequence (Q16769 29-361): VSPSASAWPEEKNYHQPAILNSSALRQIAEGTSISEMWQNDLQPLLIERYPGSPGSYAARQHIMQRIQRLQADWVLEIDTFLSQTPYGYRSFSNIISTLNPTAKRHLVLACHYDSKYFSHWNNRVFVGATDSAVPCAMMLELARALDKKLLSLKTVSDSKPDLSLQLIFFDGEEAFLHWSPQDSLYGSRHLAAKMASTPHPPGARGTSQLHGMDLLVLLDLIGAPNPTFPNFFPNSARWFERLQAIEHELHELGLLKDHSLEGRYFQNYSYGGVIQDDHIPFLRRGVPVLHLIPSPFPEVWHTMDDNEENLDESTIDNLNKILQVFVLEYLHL

Regarding `C[C@@H]1C[C@](F)(c2nncn2C)CCN1c1c(C#N)cc(C(F)(F)F)nc1-c1ccnnc1` [Example 15], the IC50 (in general, the point on the concentration scale where inhibition reaches its midpoint) at QPCTL was found to be 14 nM; on QPCT, 24 nM; in data set [1], 837 nM; in data set [2], 486 nM. The efflux ratio (usually the permeability from basolateral to apical divided by that in the opposite direction, in the common usage) at 2 h in data set [3] came to 9.4. Also, the apical-to-basolateral permeability (Papp A→B) (as a rule, the apparent permeability from the apical to the basolateral side of a cell layer) at 2 h in data set [3] is 3.3 ×10⁻⁶ cm/s.
With `C[C@@H]1C[C@](F)(c2nncn2C)CCN1c1c(C#N)cc(C(F)(F)F)nc1-c1cnc2nn(C(C)(C)C)cc2c1` [Example 16], the IC50 at QPCTL worked out at 7 nM; on QPCT, 5 nM; in data set [1], 124 nM; in data set [2], 74 nM. In addition, the efflux ratio at 2 h in data set [3] worked out at 7.1. Also, in data set [3], the Papp A→B at 2 h was determined as 9.2 ×10⁻⁶ cm/s.
